Earlier results in patent US6426091B1, “Sustained-release theophylline tablet” (Nikken Chemicals Co., Ltd., priority 1997, dated 2002).

Structure (SMILES): Cn1c(=O)c2[nH]cnc2n(C)c1=O [Theophylline]
- biological half-life (adults): about 6 hours
- concentration in the blood above which serious side effects (cardiovascular system, central nervous system) sometimes appear (background art): exceeds 20 μg/ml
